Where “and” joins values, the source holds several entries; their conditions need not be identical. Equal entries are not always repeated. Toxic doses and inconclusive results are not listed.
Tested on: CD2F1 mice, L1210 leukemia ip, survival T/C
Assay: NCI In Vivo Anticancer Drug Screen. Data for tumor model L1210 Leukemia (intraperitoneal) in CD2F1 (CDF1) mice
Settings: higher = longer survival
Summary of the method: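 Antitumor effect is scored in animals hosting a serially transplanted tumor. Values compare compound-dosed animals against vehicle-only controls as a simple quotient.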

[1] = endpoint: mean survival time, dose: 50.0 mg/kg/injection, schedule: Q01DX009 (ip), vehicle: saline
[2] = endpoint: mean survival time, dose: 100.0 mg/kg/injection, schedule: Q01DX009 (ip), vehicle: saline
[3] = endpoint: mean survival time, dose: 100.0 mg/kg/injection, schedule: Q04DX002 (ip), vehicle: saline with Tween-80
[4] = endpoint: mean survival time, dose: 200.0 mg/kg/injection, schedule: Q04DX002 (ip), vehicle: saline with Tween-80
[5] = endpoint: mean survival time, dose: 400.0 mg/kg/injection, schedule: Q04DX002 (ip), vehicle: saline with Tween-80
[6] = endpoint: mean survival time, dose: 100.0 mg/kg/injection, schedule: Q04DX003 (ip), vehicle: saline with Tween-80
[7] = endpoint: mean survival time, dose: 200.0 mg/kg/injection, schedule: Q04DX003 (ip), vehicle: saline with Tween-80
[8] = endpoint: mean survival time, dose: 400.0 mg/kg/injection, schedule: Q04DX003 (ip), vehicle: saline with Tween-80
[9] = endpoint: mean survival time, dose: 100.0 mg/kg/injection, schedule: Q01DX009 (ip), vehicle: saline with Tween-80
[10] = endpoint: mean survival time, dose: 200.0 mg/kg/injection, schedule: Q01DX009 (ip), vehicle: saline with Tween-80
[11] = endpoint: mean survival time, dose: 400.0 mg/kg/injection, schedule: Q01DX009 (ip), vehicle: saline with Tween-80
[12] = endpoint: mean survival time, dose: 25.0 mg/kg/injection, schedule: Q01DX009 (ip), vehicle: saline with Tween-80
[13] = endpoint: mean survival time, dose: 50.0 mg/kg/injection, schedule: Q01DX009 (ip), vehicle: saline with Tween-80
[14] = endpoint: mean survival time, dose: 200.0 mg/kg/injection, schedule: Q01DX009 (ip), vehicle: saline

CCOC1NC(=O)Oc2ccccc21 (stereo not given)
T/C (endpoint: median survival time, dose: 50.0 mg/kg/injection, schedule: Q01DX005 (ip), vehicle: Klucel (hydroxypropylcellulose) (HPC)): 100 % of control
T/C (endpoint: median survival time, dose: 100.0 mg/kg/injection, schedule: Q01DX005 (ip), vehicle: Klucel (hydroxypropylcellulose) (HPC)): 95 % of control
T/C (endpoint: median survival time, dose: 200.0 mg/kg/injection, schedule: Q01DX005 (ip), vehicle: Klucel (hydroxypropylcellulose) (HPC)): 108 % of control

CCN(CC)CCSC(=O)c1ccccc1
T/C [1]: 103 % of control
T/C [2]: 103 % of control

CN(C)CC(C)(C)C(=O)c1ccc(F)cc1
T/C (endpoint: mean survival time, dose: 12.5 mg/kg/injection, schedule: Q04DX002 (ip), vehicle: saline): 104 % of control
T/C (endpoint: mean survival time, dose: 25.0 mg/kg/injection, schedule: Q04DX002 (ip), vehicle: saline): 101 % of control
T/C (endpoint: mean survival time, dose: 50.0 mg/kg/injection, schedule: Q04DX002 (ip), vehicle: saline): 96 % of control

CCOC(=O)/C(C#N)=N/Nc1cccc(Cl)c1Cl
T/C [3]: 96 % of control
T/C [4]: 96 % of control
T/C [5]: 100 % of control

CCN(CC)C(=O)Cc1ccc2c3c(cccc13)CC2
T/C [6]: 98 % of control
T/C [7]: 98 % of control
T/C [8]: 92 % of control

C/C(CCC(CC(=O)O)C(C)C)=N\NC(N)=O (stereo not given)
T/C [6]: 97 % of control
T/C [7]: 97 % of control
T/C [8]: 103 % of control

CC1NC(=O)OC12CCCCC2 (stereo not given)
T/C [9]: 101 % of control
T/C [10]: 107 % of control

C=CC1=NC(C)(C)CC(C)O1 (stereo not given)
T/C (endpoint: mean survival time, dose: 0.78 mg/kg/injection, schedule: Q01DX009 (ip), vehicle: water): 104 % of control
T/C (endpoint: mean survival time, dose: 1.56 mg/kg/injection, schedule: Q01DX009 (ip), vehicle: water): 102 % of control
T/C (endpoint: mean survival time, dose: 3.13 mg/kg/injection, schedule: Q01DX009 (ip), vehicle: water): 105 % of control
T/C (endpoint: mean survival time, dose: 6.25 mg/kg/injection, schedule: Q01DX009 (ip), vehicle: water): 104 % of control
T/C (endpoint: mean survival time, dose: 12.5 mg/kg/injection, schedule: Q01DX009 (ip), vehicle: water): 100 % of control

CC1(C)CC(=O)C=C(N)C1
T/C [9]: 100 % of control
T/C [10]: 97 % of control
T/C [11]: 108 % of control

CC(=O)OCC(O)C(O)C(O)C(O)CO (stereo not given)
T/C [9]: 109 % of control
T/C [10]: 94 % of control
T/C [11]: 96 % of control

CN(C)N=Nc1ccccc1C(=O)NNC(N)=S
T/C (endpoint: mean survival time, dose: 18.75 mg/kg/injection, schedule: Q01DX009 (ip), vehicle: Klucel (hydroxypropylcellulose) (HPC)): 98 % of control and 103 % of control
T/C (endpoint: mean survival time, dose: 37.5 mg/kg/injection, schedule: Q01DX009 (ip), vehicle: Klucel (hydroxypropylcellulose) (HPC)): 121 % of control and 101 % of control
T/C (endpoint: mean survival time, dose: 75.0 mg/kg/injection, schedule: Q01DX009 (ip), vehicle: Klucel (hydroxypropylcellulose) (HPC)): 107 % of control and 109 % of control
T/C (endpoint: mean survival time, dose: 150.0 mg/kg/injection, schedule: Q01DX009 (ip), vehicle: Klucel (hydroxypropylcellulose) (HPC)): 115 % of control and 116 % of control
T/C (endpoint: mean survival time, dose: 300.0 mg/kg/injection, schedule: Q01DX009 (ip), vehicle: Klucel (hydroxypropylcellulose) (HPC)): 104 % of control and 107 % of control

CCC(=O)c1cc([N+](=O)[O-])ccc1NC(C)=O
T/C [6]: 100 % of control
T/C [7]: 94 % of control
T/C [8]: 88 % of control

CCCC(C(=O)O)C1=CCCC1 (stereo not given)
T/C [12]: 102 % of control
T/C [13]: 102 % of control
T/C [9]: 100 % of control

N#CN=Nc1ccc(Cl)cc1
T/C (endpoint: mean survival time, dose: 9.5 mg/kg/injection, schedule: Q01DX001 (ip), vehicle: other): 97 % of control
T/C (endpoint: mean survival time, dose: 19.0 mg/kg/injection, schedule: Q01DX001 (ip), vehicle: other): 97 % of control
T/C (endpoint: mean survival time, dose: 38.0 mg/kg/injection, schedule: Q01DX001 (ip), vehicle: other): 89 % of control

CCC[CH2][Sn]1([CH2]CCC)[O]C2C(CO)OC(n3ccc(=O)[nH]c3=O)C2[O]1 (stereo not given)
T/C (endpoint: mean survival time, dose: 1.56 mg/kg/injection, schedule: Q01DX005 (ip), vehicle: other): 98 % of control
T/C (endpoint: mean survival time, dose: 3.13 mg/kg/injection, schedule: Q01DX005 (ip), vehicle: other): 102 % of control
T/C (endpoint: mean survival time, dose: 6.25 mg/kg/injection, schedule: Q01DX005 (ip), vehicle: other): 112 % of control
T/C (endpoint: mean survival time, dose: 12.5 mg/kg/injection, schedule: Q01DX005 (ip), vehicle: other): 100 % of control

NP(=O)(Oc1ccccc1)Oc1ccccc1
T/C [12]: 96 % of control
T/C [6]: 90 % of control

CC1([N+](=O)[O-])COC(c2ccc(Cl)cc2)OC1 (stereo not given)
T/C (endpoint: mean survival time, dose: 100.0 mg/kg/injection, schedule: Q04DX003 (ip), vehicle: Klucel (hydroxypropylcellulose) (HPC)): 96 % of control
T/C (endpoint: mean survival time, dose: 200.0 mg/kg/injection, schedule: Q04DX003 (ip), vehicle: Klucel (hydroxypropylcellulose) (HPC)): 104 % of control

Nc1nc2c(ncn2-c2cccc(NC(=O)Nc3ccc(S(=O)(=O)F)cc3)c2)c(=O)[nH]1 (tested in a mixture with another compound)
T/C [3]: 94 % of control
T/C [4]: 105 % of control
T/C [5]: 86 % of control

O=C(CNC(=O)c1ccccc1)N/N=C/c1ccco1
T/C [9]: 94 % of control
T/C [10]: 90 % of control
T/C [11]: 95 % of control

O=[Se](O)O.[NH-]C1CCCCC1[NH-].[Pt+2] (stereo not given)
T/C (endpoint: mean survival time, dose: 1.0 mg/kg/injection, schedule: Q04DX003 (ip), vehicle: dextrose): 124 % of control

C[n+]1cccc(NC(=O)c2ccc(NC(=O)C34CCC(C(=O)Nc5ccc(C(=O)Nc6ccc[n+](C)c6)cc5)(CC3)CC4)cc2)c1
T/C (endpoint: mean survival time, dose: 2.5 mg/kg/injection, schedule: Q01DX009 (ip), vehicle: saline with Tween-80): 113 % of control
T/C (endpoint: mean survival time, dose: 5.0 mg/kg/injection, schedule: Q01DX009 (ip), vehicle: saline with Tween-80): 123 % of control and 104 % of control
T/C (endpoint: mean survival time, dose: 10.0 mg/kg/injection, schedule: Q01DX009 (ip), vehicle: saline with Tween-80): 110 % of control
T/C (endpoint: mean survival time, dose: 20.0 mg/kg/injection, schedule: Q01DX009 (ip), vehicle: saline with Tween-80): 160 % of control
T/C (endpoint: mean survival time, dose: 80.0 mg/kg/injection, schedule: Q01DX009 (ip), vehicle: saline with Tween-80): 108 % of control
T/C (endpoint: median survival time, dose: 3.6 mg/kg/injection, schedule: Q01DX009 (ip), vehicle: saline with Tween-80): 106 % of control
T/C (endpoint: median survival time, dose: 16.67 mg/kg/injection, schedule: Q01DX009 (ip), vehicle: saline with Tween-80): 264 % of control

O=S(O)O.O=S(O)O.[Co].[NH2-].[NH2-].[NH2-].[NH2-]
T/C [3]: 108 % of control
T/C [4]: 108 % of control
T/C [5]: 119 % of control

CN(C)CCC(=O)c1ccccc1
T/C (endpoint: mean survival time, dose: 25.0 mg/kg/injection, schedule: Q01DX009 (ip), vehicle: saline): 106 % of control
T/C [1]: 95 % of control
T/C [2]: 106 % of control

CC(C)c1nc(CCl)c(CCl)n1Cc1ccccc1
T/C (endpoint: mean survival time, dose: 50.0 mg/kg/injection, schedule: Q01DX009 (ip), vehicle: Klucel (hydroxypropylcellulose) (HPC)): 97 % of control
T/C (endpoint: mean survival time, dose: 100.0 mg/kg/injection, schedule: Q01DX009 (ip), vehicle: Klucel (hydroxypropylcellulose) (HPC)): 94 % of control
T/C (endpoint: mean survival time, dose: 200.0 mg/kg/injection, schedule: Q01DX009 (ip), vehicle: Klucel (hydroxypropylcellulose) (HPC)): 90 % of control

C1CCC2CN(CCCN3CCOCC3)CC2C1 (stereo not given)
T/C [2]: 102 % of control
T/C [14]: 96 % of control

BrC1c2cccc3cccc(c23)C1Br (stereo not given)
T/C (endpoint: mean survival time, dose: 6.25 mg/kg/injection, schedule: Q01DX009 (ip), vehicle: saline with Tween-80): 115 % of control
T/C (endpoint: mean survival time, dose: 12.5 mg/kg/injection, schedule: Q01DX009 (ip), vehicle: saline with Tween-80): 108 % of control
T/C [12]: 115 % of control and 106 % of control
T/C [13]: 115 % of control and 105 % of control
T/C [9]: 100 % of control and 112 % of control
T/C [10]: 110 % of control

CC(=O)NCC(O)C(O)C(O)C(O)COC(=O)c1ccccc1 (stereo not given)
T/C (endpoint: mean survival time, dose: 100.0 mg/kg/injection, schedule: Q01DX001 (ip), vehicle: saline with Tween-80): 95 % of control
T/C (endpoint: mean survival time, dose: 200.0 mg/kg/injection, schedule: Q01DX001 (ip), vehicle: saline with Tween-80): 95 % of control
T/C (endpoint: mean survival time, dose: 400.0 mg/kg/injection, schedule: Q01DX001 (ip), vehicle: saline with Tween-80): 96 % of control

CC(=O)C1=C(O)C(CSCc2ccccc2)N(C)C1=O (stereo not given)
T/C (endpoint: mean survival time, dose: 75.0 mg/kg/injection, schedule: Q01DX001 (ip), vehicle: other): 95 % of control
T/C (endpoint: mean survival time, dose: 150.0 mg/kg/injection, schedule: Q01DX001 (ip), vehicle: other): 92 % of control
T/C (endpoint: mean survival time, dose: 300.0 mg/kg/injection, schedule: Q01DX001 (ip), vehicle: other): 91 % of control

CCCC(O)C(C)[N+](=O)[O-] (stereo not given)
T/C [2]: 96 % of control
T/C [14]: 106 % of control
T/C (endpoint: mean survival time, dose: 400.0 mg/kg/injection, schedule: Q01DX009 (ip), vehicle: saline): 96 % of control

NC(=O)c1ncn(C2OC3COP(=O)(O)OC3C2O)c1N (stereo not given)
T/C (endpoint: median survival time, dose: 44.6 mg/kg/injection, schedule: Q01DX005 (ip), vehicle: saline): 98 % of control
T/C (endpoint: median survival time, dose: 89.2 mg/kg/injection, schedule: Q01DX005 (ip), vehicle: saline): 101 % of control
T/C (endpoint: median survival time, dose: 178.5 mg/kg/injection, schedule: Q01DX005 (ip), vehicle: saline): 93 % of control
